Values quoted from earlier work as cited in patent US8236821B2, “Substituted N-phenyl-5-phenyl-pyrazolin-3-yl amides as cannabinoid receptor antagonists/inverse agonists useful for treating obesity” (Jenrin Discovery, Inc., priority 2008, dated 2012).

Settings: type 2 diabetes patients not treated with other anti-diabetic medications; six months of treatment; baseline value 7.9; placebo reduction 0.3%

In the case of Cc1c(C(=O)NN2CCCCC2)nn(-c2ccc(Cl)cc2Cl)c1-c1ccc(Cl)cc1 [rimonabant], the HbA1c levels lowered is listed as 0.8%.
